According to US20070054916A1, “Aryl nitrogen-containing bicyclic compounds and methods of use” (Amgen Inc., priority 2004, published 2007):

Test system: production of TNF by monocytes activated with bacterial lipopolysaccharide (LPS)
Assay: Lipopolysaccharide-activated monocyte TNF production assay
Type: cell-based
Conditions: Homo sapiens, read-out: IC50 values in the monocyte assay (LPS induced TNF release)
Description: Lipopolysaccharide-Activated Monocyte TNF Production Assay
Test compounds were evaluated in vitro for the ability to inhibit the production of TNF by monocytes activated with bacterial lipopolysaccharide (LPS). Fresh residual source leukocytes (a byproduct of plateletpheresis) were obtained from a local blood bank, and peripheral blood mononuclear cells (PBMCs) were isolated by density gradient centrifugation on Ficol-Paque Plus (Pharmacia). PBMCs were suspended at 2×10^6/ml in DMEM supplemented to contain 2% FCS, 10 mM, 0.3 mg/ml […], 100 U/ml penicillin G and […] streptomycin sulfate (complete media). Cells were plated into Falcon flat bottom, 96 well culture plates (200 μl/well) and cultured overnight at 37° C. and 6% CO2. Non-adherent cells were removed by washing with 200 μl/well of fresh medium. Wells containing adherent cells (˜70% monocytes) were replenished with 100 μl of fresh medium.
Preparation of Test Compound Stock Solutions
Test compounds were dissolved in […]. Compound stock solutions were prepared to an initial concentration of […]. Stocks were diluted initially to 20-200 μM in complete media. Nine two-fold serial dilutions of each compound were then prepared in complete medium.
Treatment of Cells with Test Compounds and Activation of TNF Production with Lipopolysaccharide
One hundred microliters of each test compound dilution were added to microtiter wells containing adherent monocytes and 100 μl complete medium. Monocytes were cultured with test compounds for 60 min at which time 25 μl of complete medium containing 30 ng/ml lipopolysaccharide from E. coli K532 were added to each well. Cells were cultured an additional 4 hrs. Culture supernatants were then removed and TNF presence in the supernatants was quantified using an ELISA.
Flat bottom, 96 well Corning High Binding ELISA plates were coated overnight (4° C.) with 150 μL/well of 3 μg/ml murine anti-human TNF-α MAb (R&D Systems #MAB210). Wells were then blocked for 1 hr at room temperature with 200 μL/well of CaCl2-free ELISA buffer supplemented to contain 20 mg/ml BSA (standard ELISA buffer: […], 150 mM NaCl, 2 mM CaCl2, 0.15 mM thimerosal, pH 7.4). Plates were washed and replenished with 100 μl of test supernatants (diluted 1:3) or standards. Standards consisted of eleven 1.5-fold serial dilutions from a stock of 1 ng/ml recombinant human TNF (R&D Systems). Plates were incubated at room temperature for 1 hr on orbital shaker (300 rpm), washed and replenished with 100 μl/well of 0.5 ug/ml goat anti-human TNF-α (R&D systems #AB-210-NA) biotinylated at a 4:1 ratio. Plates were incubated for 40 min, washed and replenished with 100 μl/well of alkaline phosphatase-conjugated streptavidin (Jackson ImmunoResearch #016-050-084) at 0.02 ug/ml. Plates were incubated 30 min, washed and replenished with 200 μl/well of 1 mg/ml of p-nitrophenyl phosphate. After 30 min, plates were read at 405 nm on a Vmax plate reader.
Standard curve data were fit to a second order polynomial and unknown TNF-α concentrations determined from their OD by solving this equation for concentration. TNF concentrations were then plotted vs. test compound concentration using a second order polynomial. This equation was then used to calculate the concentration of test compounds causing a 50% reduction in TNF production.

SMILES | IC50 [µM]
Cc1ccc(C(=O)Nc2cccc3ncccc23)cc1-c1ccc2nc(N)ncc2c1 [Example 281, 3-(2-amino-6-quinazolinyl)-4-methyl-N-(5-quinolinyl)benzamide] | ≤ 25
Nc1ncc2cc(-c3ccc(F)c(NC(=O)c4cccc(Cl)c4Cl)c3)ccc2n1 [Example 487, N-(5-(2-amino-6-quinazolinyl)-2-fluorophenyl)-2,3-dichlorobenzamide] | ≤ 25
Cc1ccc(C(=O)Nc2cccc(C(F)(F)F)c2F)cc1-c1ccc2nc(NCCCN3CCOCC3)ncc2c1 [Example 23, N-(2-fluoro-3-(trifluoromethyl)phenyl)-4-methyl-3-(2-((3-(4-morpholinyl)propyl)amino)-6-quinazolinyl) benzamide] | ≤ 25
Cc1ccc(NC(=O)Nc2cccc(C(F)(F)F)c2)cc1-c1ccc2nc(N)ncc2c1 [Example 524, N-(3-(2-amino-6-quinazolinyl)-4-methylphenyl)-N′-(3-(trifluoromethyl)phenyl)urea] | ≤ 25
Cc1ccc(C(=O)Nc2cc(C(=O)N3CCN(C)CC3)cc(C(F)(F)F)c2)cc1-c1ccc2nc(N)ncc2c1 [Example 158, 3-(2-amino-6-quinazolinyl)-4-methyl-N-(3-((4-methyl-1-piperazinyl)carbonyl)-5-(trifluoromethyl)phenyl)benzamide] | ≤ 25
Cc1ccc(C(=O)Nc2cc(CN3CCN(C)CC3)cc(C(F)(F)F)c2)cc1-c1ccc2nc(N)ncc2c1 [Example 159, 3-(2-amino-6-quinazolinyl)-4-methyl-N-(3-((4-methyl-1-piperazinyl)methyl)-5-(trifluoromethyl)phenyl)benzamide] | ≤ 25
CNc1ncc2cc(-c3cc(NC(=O)c4cc(OC)c(OC)c(OC)c4)ccc3C)cnc2n1 [Example 216, N-(4-methyl-3-(2-(methylamino)pyrido[2,3-d]pyrimidin-6-yl)phenyl)-3,4,5-tris(methyloxy)benzamide] | ≤ 25
Cc1ccc(C(=O)Nc2cccc(C(F)(F)F)c2C)cc1-c1ccc2nc(NCCN3CCOCC3)ncc2c1 [Example 28, 4-methyl-N-(2-methyl-3-(trifluoromethyl)phenyl)-3-(2-((2-(4-morpholinyl)ethyl)amino)-6-quinazolinyl) benzamide] | ≤ 25
Cc1ccc(F)c(NC(=O)c2ccc(C)c(-c3ccc4nc(N)ncc4c3)c2)c1 [Example 147, 3-(2-amino-6-quinazolinyl)-N-(2-fluoro-5-methylphenyl)-4-methylbenzamide] | ≤ 25
CCN(CC)S(=O)(=O)c1ccc(OC)c(NC(=O)c2ccc(C)c(-c3ccc4nc(N)ncc4c3)c2)c1 [Example 231, 3-(2-amino-6-quinazolinyl)-N-(5-((diethylamino)sulfonyl)-2-(methyloxy)phenyl)-4-methylbenzamide] | ≤ 25
Cc1ccc(C(=O)Nc2ncc(Br)s2)cc1-c1ccc2nc(N)ncc2c1 [Example 356, 3-(2-amino-6-quinazolinyl)-N-(5-bromo-1,3-thiazol-2-yl)-4-methylbenzamide] | ≤ 25
Cc1ccc(NC(=O)c2cc(C(F)(F)F)ccc2N(C)CCCN(C)C)cc1-c1ccc2nc(N)ncc2c1 [Example 431, N-(3-(2-amino-6-quinazolinyl)-4-methylphenyl)-2-((3-(dimethylamino)propyl)(methyl)amino)-5-(trifluoromethyl)benzamide] | ≤ 25
Cc1ccc(C(=O)Nc2c3c(nn2CCC#N)CCC3)cc1-c1ccc2nc(N)ncc2c1 [Example 304, 3-(2-amino-6-quinazolinyl)-N-(2-(2-cyanoethyl)-2,4,5,6-tetrahydrocyclopenta [c]pyrazol-3-yl)-4-methylbenzamide] | ≤ 25
Nc1ncc2cc(-c3ccc(F)c(NC(=O)c4cc(F)cc(C(F)(F)F)c4)c3)ccc2n1 [Example 489, N-(5-(2-amino-6-quinazolinyl)-2-fluorophenyl)-3-fluoro-5-(trifluoromethyl)benzamide] | ≤ 25
CN1CCN(c2ccc(C(F)(F)F)cc2NC(=O)c2cc(-c3ccc4nc(N)ncc4c3)ccc2F)CC1 [Example 421, 5-(2-amino-6-quinazolinyl)-2-fluoro-N-(2-(4-methyl-1-piperazinyl)-5-(trifluoromethyl)phenyl)benzamide] | ≤ 25
Cc1ccc(C(=O)Nc2cc(C(F)(F)F)ccn2)cc1-c1ccc2nc(N)ncc2c1 [Example 345, 3-(2-amino-6-quinazolinyl)-4-methyl-N-(4-(trifluoromethyl)-2-pyridinyl)benzamide] | ≤ 25
Nc1ncc2cc(-c3cc(C(=O)Nc4cccc(C(F)(F)F)c4F)ccc3F)ccc2n1 [Example 136, 3-(2-amino-6-quinazolinyl)-4-fluoro-N-(2-fluoro-3-(trifluoromethyl)phenyl)benzamide] | ≤ 25
COc1ccc(C(F)(F)F)cc1NC(=O)c1ccc(C)c(-c2ccc3nc(N)ncc3c2)c1 [Example 41, 3-(2-amino-6-quinazolinyl)-4-methyl-N-(2-(methyloxy)-5-(trifluoromethyl)phenyl)benzamide] | ≤ 25
CN(C)[C@@H]1CCN(c2ccc(C(F)(F)F)cc2NC(=O)c2cc(-c3ccc4nc(N)ncc4c3)ccc2F)C1 [Example 422, 5-(2-amino-6-quinazolinyl)-N-(2-((3R)-3-(dimethylamino)-1-pyrrolidinyl)-5-(trifluoromethyl)phenyl)-2-fluorobenzamide] | ≤ 25
Cc1cc(NC(=O)c2ccc(C)c(-c3ccc4nc(N)ncc4c3)c2)on1 [Example 323, 3-(2-amino-6-quinazolinyl)-4-methyl-N-(3-methyl-5-isoxazolyl)benzamide] | ≤ 25
CNc1ncc2cc(-c3cc(C(=O)Nc4cc(C(C)(C)C)ccc4NC(=O)CN4CCOCC4)ccc3C)cnc2n1 [Example 192] | ≤ 25
Cc1ccc(C(=O)Nc2ccc(F)cc2F)cc1-c1ccc2nc(N)ncc2c1 [Example 424, 3-(2-amino-6-quinazolinyl)-N-(2,4-difluorophenyl)-4-methylbenzamide] | ≤ 25
CNc1ncc2cc(-c3cc(C(=O)Nc4cc(C(=O)NCCN5CCOCC5)cc(C(F)(F)F)c4)ccc3C)cnc2n1 [Example 189, 4-methyl-3-(2-(methylamino)pyrido [2,3-d]pyrimidin-6-yl)-N-(3-(((2-(4-morpholinyl)ethyl)amino)carbonyl)-5-(trifluoromethyl)phenyl)benzamide] | ≤ 25
CNc1ncc2cc(-c3cc(NC(=O)c4cccc5c4OC(F)(F)O5)ccc3C)cnc2n1 [Example 214, 2,2-difluoro-N-(4-methyl-3-(2-(methylamino)pyrido[2,3-d]pyrimidin-6-yl)phenyl)-1,3-benzodioxole-4-carboxamide] | ≤ 25
CC(=O)Nc1ccc(C(F)(F)F)cc1NC(=O)c1ccc(C)c(-c2ccc3nc(N)ncc3c2)c1 [Example 234, N-(2-(acetylamino)-5-(trifluoromethyl)phenyl)-3-(2-amino-6-quinazolinyl)-4-methylbenzamide] | ≤ 25
Cc1ccc(C(=O)Nc2cccc(C(F)(F)F)c2)cc1-c1ccc2nc(N)ncc2c1 [Example 120, 3-(2-amino-6-quinazolinyl)-4-methyl-N-(3-(trifluoromethyl)phenyl)benzamide] | ≤ 25
Cc1ccc(C(=O)Nc2cc(C(C)(C)C)ccc2NC(=O)CN2CCOCC2)cc1-c1ccc2nc(N)ncc2c1 [Example 8] | ≤ 25
